The results in this text go back to ChEMBL document CHEMBL5329179, “Inhibitory effect of γ-ray-modified hydroxymethylated baicalins on NO production” (Bioorg Med Chem Lett, 2023).

Type in all cases: functional, cell-based
For assay [1], the system named is RAW264.7. Put plainly: Antiinflammatory activity against LPS-stimulated mouse RAW264.7 cells assessed as reduction in NO production.
Assay [2] is described as follows: Antiinflammatory activity against LPS-stimulated dog DH82 cells assessed as reduction in NO production. Particulars: Canis lupus familiaris.
The subject of assay [3] is RAW264.7. As to the kind of experiment: Antiinflammatory activity against LPS-stimulated mouse RAW264.7 cells assessed as reduction in iNOS mRNA expression level at 20 uM by qRT-PCR analysis.
The test system of assay [4] is RAW264.7. As to the kind of experiment: Antiinflammatory activity against mouse RAW264.7 cells assessed as reduction in NO production compound photoirradiated using 50 kGy gamma-ray. Particulars: RAW264.7, light or radiation study.
A further assay has as its system DH82. Put plainly: Antiinflammatory activity against LPS-stimulated dog DH82 cells assessed as reduction in iNOS mRNA expression level at 20 uM by qRT-PCR analysis. Particulars: Canis lupus familiaris.

Converted amounts (≈) assume the structure as drawn. The source made the active and inactive calls. The rule behind the calls is not given here.

Take `O=C(O)[C@H]1O[C@@H](Oc2cc3c(c(O)c2O)C(=O)[C@@H](CO)[C@](CO)(c2ccccc2)O3)[C@H](O)[C@@H](O)[C@@H]1O`: the concentration for half-maximal inhibition (IC50) in the assay with RAW264.7 [1] is 68 µM; in assay [2], 57.5 µM.
With `O=C(O)[C@H]1O[C@@H](Oc2cc3oc(-c4ccccc4)cc(=O)c3c(O)c2O)[C@H](O)[C@@H](O)[C@@H]1O` [BAICALIN], the outcome in the assay with RAW264.7 [3] and in the assay with DH82 was Active. Also, the values for the half-maximal inhibitory concentration (IC50) (with RAW264.7 [4]; with RAW264.7 [1]; in assay [2]) were 35.2 µg/mL (≈ 78.9 µM), 157 µM and more than 200 µM, respectively.
Consider `O=C1C[C@](CO)(c2ccccc2)Oc2cc(O[C@@H]3O[C@H](C(=O)O)[C@@H](O)[C@H](O)[C@H]3O)c(O)c(O)c21`, for which the outcome with RAW264.7 [3] and in the assay on DH82 was Active. The IC50 with RAW264.7 [1] stood at 22.7 µM; in assay [2], 24.9 µM.
Regarding `O=C1C[C@](CO)(c2ccccc2)Oc2cc3c(c(O)c21)OOC3`, the IC50 (in the assay with RAW264.7 [1]; in assay [2]) was more than 200 µM throughout.
For `O=C1C[C@@](CO)(c2ccccc2)Oc2cc(O[C@@H]3O[C@H](C(=O)O)[C@@H](O)[C@H](O)[C@H]3O)c(O)c(O)c21`, the result in the assay with RAW264.7 [3] and with DH82 was Active. Besides, the figures for the IC50 (in the assay with RAW264.7 [1]; in assay [2]) were 18.9 µM and 19.1 µM, respectively.
In the case of `N=C(N)NN` [PIMAGEDINE], the half-maximal inhibitory concentration (IC50) is 24.5 µM in the assay with RAW264.7 [1] and 21 µM in assay [2].
Take `O=c1cc(-c2ccccc2)oc2cc(O)c(O)c(O)c12` [BAICALEIN]: the IC50 came out at 30.4 µM with RAW264.7 [1] and 31.2 µM in assay [2].
For `COc1c(O)cc2oc(-c3ccccc3)cc(=O)c2c1O` [OROXYLIN A] the same measures were 48.9 µM and 50.6 µM.
